A compilation of properties of binary mixtures (doi:10.1016/j.molliq.2017.06.029)

Assay: xn = mol fraction of the nth substance listed
Conditions: 100 kPa

OCc1ccco1 + CC(=O)[O-].CC[n+]1ccn(C)c1
speed of sound [m/s]
Conditions | 298.15 K | 303.15 K | 308.15 K | 313.15 K | 318.15 K
x2 = 0 | 1447 | 1431 | 1413 | 1394 | 1375
x2 = 0.0572 | 1487 | 1471 | 1452 | 1430 | –
x2 = 0.1058 | 1522 | 1506 | 1487 | 1465 | 1433
x2 = 0.1534 | 1548 | 1532 | – | 1490 | –
x2 = 0.2087 | 1573 | 1557 | 1540 | 1519 | –
x2 = 0.3068 | – | – | 1577 | – | 1534
x2 = 0.408 | 1637 | 1623 | 1609 | 1595 | 1578
x2 = 0.5063 | – | – | 1633 | 1620 | 1606
x2 = 0.5513 | 1670 | 1656 | 1643 | 1629 | –
x2 = 0.6031 | 1680 | 1666 | – | – | 1627
x2 = 0.7053 | 1696 | 1683 | – | 1657 | –
x2 = 0.8045 | 1711 | – | 1685 | 1673 | 1660
x2 = 0.8441 | 1716 | 1704 | 1691 | 1678 | 1666
x2 = 0.902 | 1723 | – | 1699 | 1686 | 1674

CC(=O)[O-].CC[n+]1ccn(C)c1 + OCc1ccco1
x1 = 1
Conditions | speed of sound [m/s]
298.15 K | 1735
303.15 K | 1722
308.15 K | 1710
313.15 K | 1698
318.15 K | 1686
